The results in this text go back to patent US10519152B2, “Compounds and their use in treating cancer” (AstraZeneca AB, priority 2017, dated 2019).

The experiment concerns the target T1, Estrogen Receptor (ERα) in MCF-7 human ductal carcinoma breast cell line (Homo sapiens, UniProt P03372).
T1 construct: endogenous in cells; host or cells: MCF-7
T1 sequence (P03372 1-595): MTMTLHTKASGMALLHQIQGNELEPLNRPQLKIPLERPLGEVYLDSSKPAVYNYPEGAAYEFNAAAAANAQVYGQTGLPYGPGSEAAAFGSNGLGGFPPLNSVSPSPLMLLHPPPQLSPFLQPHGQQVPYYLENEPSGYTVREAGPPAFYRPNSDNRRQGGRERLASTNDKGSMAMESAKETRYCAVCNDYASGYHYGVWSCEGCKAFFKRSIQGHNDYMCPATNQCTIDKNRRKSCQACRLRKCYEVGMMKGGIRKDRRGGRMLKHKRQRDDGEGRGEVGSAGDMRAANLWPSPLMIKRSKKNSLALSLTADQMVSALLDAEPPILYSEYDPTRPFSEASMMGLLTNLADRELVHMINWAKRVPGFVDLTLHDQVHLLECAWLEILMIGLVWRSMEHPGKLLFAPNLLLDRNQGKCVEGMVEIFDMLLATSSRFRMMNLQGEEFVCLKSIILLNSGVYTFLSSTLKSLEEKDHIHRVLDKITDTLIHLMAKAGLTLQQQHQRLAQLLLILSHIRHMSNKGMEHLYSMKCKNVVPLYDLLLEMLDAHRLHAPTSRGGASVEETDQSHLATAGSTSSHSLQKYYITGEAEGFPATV
Put plainly: MCF-7 ER degradation assay (cell based immuno-fluorescence). The following applies: MCF-7 cells; for ER degradation ≥ 90% at 0.3 μM: ER degradation by fulvestrant at 0.3 μM is defined as 100%; for DC50: 18-22 hours incubation, 50% reduction of ERα expression, single experiment or average of two or more, read-out: MCF-7 ER degradation IC50. In outline:
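MCF-7 human ductal carcinoma breast cells were seeded at 3.75×10^4 cells per mL (40 μL per well) in 384 well plates with phenol red free DMEM containing 2 mM L-Glutamine and 5% (v/v) Charcoal/Dextran treated foetal calf serum. After overnight culture, compounds were acoustically dispensed, incubated 18-22 hours, then cells were formaldehyde-fixed and immunostained for ERα.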

Each structure is given as a SMILES string.

Consider `Cc1ncsc1-c1ccc([C@H](C)NC(=O)[C@@H]2C[C@@H](O)CN2C(=O)[C@@H](NC(=O)COCCOCCCCCOc2cc(F)c([C@@H]3c4[nH]c5ccccc5c4C[C@@H](C)N3CC(F)(F)F)c(F)c2)C(C)(C)C)cc1` [Example 140, (2S,4R)-1-((S)-2-(2-(2-((5-(3,5-Difluoro-4-((1R,3R)-3-methyl-2-(2,2,2-trifluoroethyl)-2,3,4,9-tetrahydro-1H-pyrido[3,4-b]indol-1-yl)phenoxy)pentyl)oxy)ethoxy)acetamido)-3,3-dimethylbutanoyl)-4-hydroxy-N—((S)-1-(4-(4-methylthiazol-5-yl)phenyl)ethyl)pyrrolidine-2-carboxamide], for which the “ER degradation ≥ 90% at 0.3 μM” value is reported as “••” and the DC50 was found to be 0.6 nM.

As to `Cc1ncsc1-c1ccc([C@H](C)NC(=O)[C@@H]2C[C@@H](O)CN2C(=O)[C@@H](NC(=O)C(F)(F)OCCOCCCCOc2cc(F)c([C@@H]3c4[nH]c5ccccc5c4C[C@@H](C)N3CC(C)(C)F)c(F)c2)C(C)(C)C)cc1` [Example 122, (2S,4R)-1-((S)-2-(2-(2-(4-(3,5-Difluoro-4-((1R,3R)-2-(2-fluoro-2-methylpropyl)-3-methyl-2,3,4,9-tetrahydro-1H-pyrido[3,4-b]indol-1-yl)phenoxy)butoxy)ethoxy)-2,2-difluoroacetamido)-3,3-dimethylbutanoyl)-4-hydroxy-N—((S)-1-(4-(4-methylthiazol-5-yl)phenyl)ethyl)pyrrolidine-2-carboxamide], the “ER degradation ≥ 90% at 0.3 μM” value is “•” and the DC50 is 2 nM.

As for `Cc1ncsc1-c1ccc(CNC(=O)[C@@H]2C[C@@H](O)CN2C(=O)[C@@H](NC(=O)COCCCCCOCCOc2ccc([C@@H]3c4[nH]c5ccccc5c4C[C@@H](C)N3CC(F)F)nc2)C(C)(C)C)cc1` [Example 10, (2S,4R)-1-((S)-2-(2-((5-(2-((6-((1S,3R)-2-(2,2-Difluoroethyl)-3-methyl-2,3,4,9-tetrahydro-1H-pyrido[3,4-b]indol-1-yl)pyridin-3-yl)oxy)ethoxy)pentyl)oxy)acetamido)-3,3-dimethylbutanoyl)-4-hydroxy-N-(4-(4-methylthiazol-5-yl)benzyl)pyrrolidine-2-carboxamide], the “ER degradation ≥ 90% at 0.3 μM” value was “••” and the DC50 was 12 nM.

As for `Cc1ncsc1-c1ccc(CNC(=O)[C@@H]2C[C@@H](O)CN2C(=O)[C@@H](NC(=O)COCCCCOc2cc(F)c([C@@H]3c4[nH]c5ccccc5c4C[C@@H](C)N3CC(C)(C)F)c(F)c2)C(C)(C)C)cc1` [Example 14, (2S,4R)-1-((S)-2-(2-(4-(3,5-Difluoro-4-((1R,3R)-2-(2-fluoro-2-methylpropyl)-3-methyl-2,3,4,9-tetrahydro-1H-pyrido[3,4-b]indol-1-yl)phenoxy)butoxy)acetamido)-3,3-dimethylbutanoyl)-4-hydroxy-N-(4-(4-methylthiazol-5-yl)benzyl)pyrrolidine-2-carboxamide], the “ER degradation ≥ 90% at 0.3 μM” value is reported as “•” and the DC50 stood at 1.4 nM.

Consider `Cc1ncsc1-c1ccc(CNC(=O)[C@@H]2C[C@@H](O)CN2C(=O)[C@@H](NC(=O)C(F)(F)OCCCOCCCOc2cc(F)c([C@@H]3c4[nH]c5ccccc5c4C[C@@H](C)N3CC(C)(C)F)c(F)c2)C(C)(C)C)cc1` [Example 119, (2S,4R)-1-((S)-2-(2-(3-(3-(3,5-Difluoro-4-((1R,3R)-2-(2-fluoro-2-methylpropyl)-3-methyl-2,3,4,9-tetrahydro-1H-pyrido[3,4-b]indol-1-yl)phenoxy)propoxy)propoxy)-2,2-difluoroacetamido)-3,3-dimethylbutanoyl)-4-hydroxy-N-(4-(4-methylthiazol-5-yl)benzyl)pyrrolidine-2-carboxamide], for which the “ER degradation ≥ 90% at 0.3 μM” value was “•” and the DC50 was 1.4 nM.

Take `Cc1ncsc1-c1ccc(CNC(=O)[C@@H]2C[C@@H](O)CN2C(=O)[C@@H](NC(=O)COCCCCOCCOc2cc(F)c([C@@H]3c4[nH]c5ccccc5c4C[C@@H](C)N3CC(C)(C)F)c(F)c2)C(C)(C)C)cc1` [Example 16, (2S,4R)-1-((S)-2-(2-(4-(2-(3,5-Difluoro-4-((1R,3R)-2-(2-fluoro-2-methylpropyl)-3-methyl-2,3,4,9-tetrahydro-1H-pyrido[3,4-b]indol-1-yl)phenoxy)ethoxy)butoxy)acetamido)-3,3-dimethylbutanoyl)-4-hydroxy-N-(4-(4-methylthiazol-5-yl)benzyl)pyrrolidine-2-carboxamide]: the “ER degradation ≥ 90% at 0.3 μM” value is on record as “••” and the DC50 came out at 0.8 nM.

On to `Cc1ncsc1-c1ccc([C@H](C)NC(=O)[C@@H]2C[C@@H](O)CN2C(=O)[C@@H](NC(=O)CCOCCCCCCCOc2cc(F)c([C@@H]3c4[nH]c5ccccc5c4C[C@@H](C)N3CC(C)(C)F)c(F)c2)C(C)(C)C)cc1` [Example 114, (2S,4R)-1-((S)-2-(3-((7-(3,5-difluoro-4-((1R,3R)-2-(2-fluoro-2-methylpropyl)-3-methyl-2,3,4,9-tetrahydro-1H-pyrido[3,4-b]indol-1-yl)phenoxy)heptyl)oxy)propanamido)-3,3-dimethylbutanoyl)-4-hydroxy-N—((S)-1-(4-(4-methylthiazol-5-yl)phenyl)ethyl)pyrrolidine-2-carboxamide], for which the “ER degradation ≥ 90% at 0.3 μM” value is “••” and the DC50 was determined as 3.6 nM.

Turning to `Cc1ncsc1-c1ccc(CNC(=O)[C@@H]2C[C@@H](O)CN2C(=O)[C@@H](NC(=O)CNCCC(F)(F)CCOc2cc(F)c([C@@H]3c4[nH]c5ccccc5c4C[C@@H](C)N3CC(C)(C)F)c(F)c2)C(C)(C)C)cc1` [Example 131, (2S,4R)-1-((S)-2-(2-((5-(3,5-Difluoro-4-((1R,3R)-2-(2-fluoro-2-methylpropyl)-3-methyl-2,3,4,9-tetrahydro-1H-pyrido[3,4-b]indol-1-yl)phenoxy)-3,3-difluoropentyl)amino)acetamido)-3,3-dimethylbutanoyl)-4-hydroxy-N-(4-(4-methylthiazol-5-yl)benzyl)pyrrolidine-2-carboxamide], the “ER degradation ≥ 90% at 0.3 μM” value is reported as “•” and the DC50 amounted to 0.8 nM.

Turning to `Cc1ncsc1-c1ccc(CNC(=O)[C@@H]2C[C@@H](O)CN2C(=O)[C@@H](NC(=O)COCCCCCCCOc2ccc([C@@H]3c4[nH]c5ccccc5c4C[C@@H](C)N3CC(F)F)nc2)C(C)(C)C)cc1` [Example 6, (2S,4R)-1-((S)-2-(2-((7-((6-((1S,3R)-2-(2,2-Difluoroethyl)-3-methyl-2,3,4,9-tetrahydro-1H-pyrido[3,4-b]indol-1-yl)pyridin-3-yl)oxy)heptyl)oxy)acetamido)-3,3-dimethylbutanoyl)-4-hydroxy-N-(4-(4-methylthiazol-5-yl)benzyl)pyrrolidine-2-carboxamide], the “ER degradation ≥ 90% at 0.3 μM” value is on record as “••” and the DC50 was determined as 3.6 nM.

For `Cc1ncsc1-c1ccc(CNC(=O)[C@@H]2C[C@@H](O)CN2C(=O)[C@@H](NC(=O)C2(OCCCCCCOc3cc(F)c([C@@H]4c5[nH]c6ccccc6c5C[C@@H](C)N4CC(C)(C)F)c(F)c3)CC2)C(C)(C)C)cc1` [Example 118, (2S,4R)-1-((S)-2-(1-((6-(3,5-difluoro-4-((1R,3R)-2-(2-fluoro-2-methylpropyl)-3-methyl-2,3,4,9-tetrahydro-1H-pyrido[3,4-b]indol-1-yl)phenoxy)hexyl)oxy)cyclopropane-1-carboxamido)-3,3-dimethylbutanoyl)-4-hydroxy-N-(4-(4-methylthiazol-5-yl)benzyl)pyrrolidine-2-carboxamide], the “ER degradation ≥ 90% at 0.3 μM” value is “•” and the DC50 came to 4.7 nM.
